Data as given in patent US5658888A, “Erythromycin derivatives” (Chugai Seiyaku Kabushiki Kaisha, priority 1992, dated 1997).
Read-outs that look alike come from different tables or passages of the source.

Columns and labels:
[1] = background statement; cited from earlier work
motilin receptor = molecular target: T1, motilin receptor (Oryctolagus cuniculus, UniProt G1T803); test: motilin receptor binding test (displacement of 125I-labelled motilin); design: species or system rabbit; conditions: for activity in the hydrochloric acid solution compared with that in the DMSO solution: HCl pH 2.5, 120 min vs. DMSO
T1 construct: From a killed rabbit was removed the duodenum; from tissue; host or cells: rabbit duodenum homogenate (mucous membrane detached from the tunica muscularis, homogenized in 50 mM Tris pH 7.4)
Protocol: A motilin receptor binding test was conducted in the manner described hereunder [V. Bormans, et al., Regul. Peptides, 15, 143 (1986)].
(§1) From a killed rabbit was removed the duodenum, of which the mucous membrane was detached from the tunica muscularis and then homogenized in a 50 mM Tris solution (pH 7.4) to prepare a protein solution. Twenty-five pM of ^125 I-labelled motilin (purchased from Ohtsuka Assay Laboratory) and the protein solution were incubated at 25° C. for 120 minutes, after which the radioactivity of the protein was measured with a γ-ray counter, the difference between the radioactivity observed in the case of non-addition of motilin and that observed in the case of addition of an excess (1×10^-7 m) of motilin being defined as the specific binding capacity. The efficacies of the samples were expressed as IC50 (M), the concentration of each of the test drugs which reduces the specific binding capacity to 50%. The test drug was dissolved in a DMSO solution and added to the protein solution (the final DMSO concentration:1%). In experiments on investigation of the acid resistance, the test drug was dissolved in a hydrochloric acid solution (pH 2.5) which was then allowed to stand at room temperature for 120 minutes prior to its addition to the protein solution for the experiments.

[2] = test system: gastric antrum contractile motility; test: gastrointestinal motility of the conscious dog (force transducers, intragastric administration); assay type: in vivo, Beagle dog; conditions: for ED (MI=150): Canis lupus familiaris, po, conscious dog, interdigestive state, gastric antrum, read-out: MI150 (test drug dosage required to provide MI=150); for gastrointestinal contractile activity (in words): administered into the stomach
Protocol: The gastrointestinal motility of the conscious dog was measured according to the method described previously [Itoh, Zen, Journal of the Smooth Muscle Research, 13, 33 (1976)]. Beagle dogs weighing approximately 10 kg were anesthetized with an intravenously (i.v.) injection of pentobarbital sodium and the abdominal cavity was opened under aseptic conditions. Extraluminal force transducers were sutured onto the serosa of the gastric antrum (stomach), duodenum and jejunum in a manner to measure circular muscle contraction. In addition, a Silastic tube [French, size 6.5, Dow Corning, Midland, Mich., U.S.A.) was placed into the stomach for direct administration of test drugs into the stomach. The lead wires of these force transducers and a Silastic tube were led out of the abdominal cavity and through a skin incision made between the scapulae. After the operation, the dogs were housed in individual experimental cages and given commercial dog food once a day.
The gastrointestinal motor activity was recorded on a thermal pen-writing recorder (WR-3101, Graphtec, Tokyo, Japan) by connecting the lead wires of the transducers to the connecting cables from the amplifiers (UG-5, Nihon Kohden, Tokyo, Japan). About 2 weeks postoperatively, gastrointestinal contractile activity could be divided into two main patterns of activity, interdigestive and digestive state. In the interdigestive state, IMC (interdigestive migrating contractions) were seen to occur at regular intervals of 100-120 minutes in the gastric antrum and migrated through the duodenum and jejunum at a constant velocity. In all animals, feeding disrupted the regular IMC pattern. Experiments were carried out during interdigestive state. The test drug was directly injected into the stomach through a Silastic tube placed in the stomach in a volume of 3 ml, 15 min after the end of the IMC in the gastric antrum. Test drugs were dissolved in ethanol, and then diluted with 0.9% physiological saline.
To measure motility quantitatively, the signals from the gastric antrum were relayed to a personal computer (PC-9801, NEC, Tokyo, Japan) every 100 ms. The area surrounded by the contraction waves and the base line, i.e., the product of the amplitude (voltage) and the time in minutes during a certain fixed period, was calculated, expressed as percent of the area assuming that maximum contraction (amplitude) of the interdigestive migrating contraction lasted for 1 min, and used as the motor index (MI) [Inatomi et al., J. Pharmacol. Exp. Ther. 251, 707 (1989)]. The MI, which is calculated in this manner, of the naturally occurred in the gastric antrum is about 100-200. Therefore, the test drug dosage required to provide MI=150 was defined to be MI150 which was used as the index of the stimulating effects or the gastric motility of test drugs.

[3] = acid resistance / decomposition by acid; assay type: physicochemical; conditions: compared with EM-523 / publicly known erythromycin derivatives
Protocol: as §1

T1 sequence (G1T803 1-400): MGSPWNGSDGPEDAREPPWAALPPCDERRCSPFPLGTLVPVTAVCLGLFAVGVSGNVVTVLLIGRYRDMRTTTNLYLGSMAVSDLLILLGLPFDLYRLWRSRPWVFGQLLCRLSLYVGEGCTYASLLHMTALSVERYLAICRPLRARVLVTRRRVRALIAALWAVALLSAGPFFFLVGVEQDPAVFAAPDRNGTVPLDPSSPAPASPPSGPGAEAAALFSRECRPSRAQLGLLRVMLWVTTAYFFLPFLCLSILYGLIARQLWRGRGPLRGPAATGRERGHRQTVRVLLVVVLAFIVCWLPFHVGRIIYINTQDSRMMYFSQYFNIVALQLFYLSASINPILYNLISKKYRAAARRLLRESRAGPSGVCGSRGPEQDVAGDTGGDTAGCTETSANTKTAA

level of activity in DMSO solution (comparison of Compound 6 and EM-523) (motilin receptor) | IC50 (motilin receptor; test drug in DMSO solution (final DMSO 1%), rabbit duodenum, 25 pM 125I-motilin, 25° C., 120 min, pH 7.4, read-out: IC50, Solution in DMSO) [nM] | IC50 (motilin receptor; test drug stood in hydrochloric acid solution (pH 2.5) at room temperature for 120 minutes before the assay, read-out: IC50, Solution in HCl) [nM] | SMILES | stability in the presence of an acid (in words) [1] | activity in the hydrochloric acid solution compared with that in the DMSO solution (motilin receptor) | ED (MI=150) ([2]; intragastric) [µg/kg] | gastrointestinal contractile activity (in words) [2] | contractile activity in the gastric antrum relative to EM-523 ([2]; intragastric, ratio of potency to EM-523) | decomposition by acid (in words) [3]
the same level of activity | – | – | CC[C@H]1OC(=O)[C@H](C)[C@@H](O[C@H]2C[C@@](C)(OC)[C@@H](O)[C@H](C)O2)[C@H](C)[C@@H](O[C@@H]2O[C@H](C)C[C@H](N(C)CC)[C@H]2O)[C@@]2(C)CC(C)=C(O2)[C@H](C)[C@@H](O)[C@]1(C)O [EM-523, reference compound] | unstable in the presence of an acid | a decrease in the activity to one-100th that in the DMSO solution | 14.6 | increased gastrointestinal contractile activity | – | –
the same level of activity | 4.1 | 9.1 | CC[C@H]1OC(=O)[C@H](C)[C@@H](O[C@H]2C[C@@](C)(OC)[C@@H](O)[C@H](C)O2)[C@H](C)[C@@H](O[C@@H]2O[C@H](C)C[C@H](N(C)C(C)C)[C@H]2O)[C@@]2(C)CC(C)=C(O2)[C@H](C)C(=O)[C@]1(C)OC [Compound 6, isopropyl-nor-12-O-methyl-11-oxo-8,9-anhydroerythromycin A 6,9-hemiketal] | – | differing little from the value in the DMSO solution | 3.8 | increased gastrointestinal contractile activity | about 4 times | less decomposable with an acid than is EM-523
